Activity calls are given as the source filed them.
Assays:
[1] = Luminescence Cell-Based Dose Retest to Confirm Inhibitors of Cancer Stem Cells. [Related pubchem assays (depositor defined):AID2717, AID2721]; type: functional; conditions: Homo sapiens
[2] = microbe, parasite or virus in culture; type: functional; conditions: Mycobacterium tuberculosis
[3] = Luminescence Cell-Based Dose Confirmation HTS to Identify Activators of 5'UTR Stem-Loop Driven Alpha-Synuclein mRNA Translation in H4 Neuroglioblastoma Cells. [Related pubchem assays: 1829 (Project Summary), 1814 (Primary HTS)]; type: functional
[4] = Luminescence Cell-Based Dose Response HTS to Identify Activators of Luciferase Translation or Activity in H4 […] Cells. [Related pubchem assays: 1829 (Project Summary), 1814 (Primary HTS)]; type: functional
H4 = test: Luminescence Cell-Based Dose Response HTS to Identify Activators of 5'UTR Stem-Loop Driven Prion Protein mRNA Translation in H4 Neuroglioblastoma Cells. [Related pubchem assays: 1829 (Project Summary), 1814 (Primary HTS)]; type: functional; conditions: Homo sapiens
SN12K1 = test: cells; type: functional; conditions: Homo sapiens
P388 = test: cells; type: functional
P388/ADR = test: cells; type: functional
Streptokinase A = biological target: T1, Streptokinase A (Streptococcus pyogenes serotype M1, UniProt P10520); test: viability-normalized secreted streptokinase activity reduction – plasminogen activation absorbance, OD405, dose response (AID 1914); type: functional, Streptococcus pyogenes M1 GAS;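 also: secreted streptokinase activity via plasminogen activation per viability signal from cell pellet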
T1 sequence (P10520 whole entry): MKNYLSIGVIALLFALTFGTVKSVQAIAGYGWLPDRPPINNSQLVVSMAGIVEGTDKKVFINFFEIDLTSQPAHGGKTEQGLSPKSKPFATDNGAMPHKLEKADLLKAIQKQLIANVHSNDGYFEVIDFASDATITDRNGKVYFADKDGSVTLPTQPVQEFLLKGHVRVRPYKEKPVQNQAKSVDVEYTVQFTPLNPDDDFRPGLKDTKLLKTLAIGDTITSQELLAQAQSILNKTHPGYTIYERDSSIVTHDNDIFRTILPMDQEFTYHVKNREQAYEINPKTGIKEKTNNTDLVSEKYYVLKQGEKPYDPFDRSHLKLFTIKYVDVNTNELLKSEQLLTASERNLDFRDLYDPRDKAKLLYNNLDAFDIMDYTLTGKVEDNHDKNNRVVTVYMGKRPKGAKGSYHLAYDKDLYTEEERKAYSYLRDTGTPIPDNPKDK

[5] = tested on: Streptococcus sp. 'group A'; test: Streptococcus pyogenes SK(-)GAS viability under kanamycin – luminescence, BacTiterGlo, confirmation, counter-screen for streptokinase expression inhibitor project, dose response (AID 1900); type: functional, organism-based
Streptococcus = test: GAS UMAA2166 growth inhibition – luminescence, BacTiterGlo, counter-screen for streptokinase expression inhibitor project, dose response (AID 1915); type: functional, organism-based;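 also: potency for reduction of bacterial viability or growth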
[6] = P. falciparum Dd2 growth inhibitors, dose response, SYBR Green, cherry-picked samples (AID 1159567); type: functional, cell-based
[7] = viability of PTEN-deleted HCT116 cells – cell-based, HCT116 PTEN knockout, dose response (AID 1047); type: functional;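 also: HCT116 colon tumor cells with PTEN knocked out; cells exposed to compound for 60 hours before readout; potency for loss of cell viability measured by luminescence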
[8] = viability of HCT116 lacking mutant beta-catenin – cell-based, human colon tumor, dose response (AID 1045); type: functional;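 also: HCT116 colon tumor cells with beta catenin knocked out; cells exposed to compound for 60 hours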

Structure (SMILES) | EC50 [3] | EC50 [4] | EC50 (H4) | GI50 (SN12K1) | GI50 (P388; Mus musculus, P388) | GI50 (P388/ADR; Mus musculus, P388/ADR) | also measured
COc1ccc(C2=NN(C(=O)COC(=O)c3ccc(S(C)(=O)=O)c([N+](=O)[O-])c3)C(c3ccco3)C2)cc1 (configuration not stated) | – | – | – | – | – | – | AC50 [1]: 1.52 µM (active); CC50 [2]: 9.73 µM (active)
CC1(C)CC(=O)c2sc(N3CCCCC3)nc2C1 | 8.85 µM (active) | 68.7 µM (active) | 74 µM (active) | – | – | – | –
CC(C)c1nnc(NC(=O)CCC(=O)N2CCN(c3ccc(Cl)cc3)CC2)s1 | – | – | – | – | – | – | CC50 [2]: > 40 µM (active)
CSCC[C@@H](NC(=O)[C@H](CC(C)C)NC(=O)C(Cc1cnc[nH]1)NC(=O)CNC(=O)[C@@H](NC(=O)[C@H](C)NC(=O)[C@H](Cc1c[nH]c2ccccc12)NC(=O)[C@H](CCC(N)=O)NC(=O)[C@@H](N)CC(N)=O)C(C)C)C(N)=O (some centres not stated) | – | – | – | > 100 µM (inactive) | > 100 µM (inactive) | > 100 µM (inactive) | –
Cc1ccc(Cn2nc(C)cc2C(=O)Nc2ccccc2Cl)cc1 | 1.49 µM (active) | 21.3 µM (active) | 33.9 µM (active) | – | – | – | –
CC(=O)c1ccc(NC(=O)COC(=O)c2c3c(nc4ccccc24)/C(=C\c2cccs2)CCC3)cc1 | – | – | – | – | – | – | AC50 [1]: 3.85 µM (active); CC50 [2]: 12.4 µM (active)
Nc1ncn(C2OC(CO)C(O)C2O)c(=O)n1 (configuration not stated) | – | – | – | – | 0.348 µM (active) | 0.393 µM (active) | GI50 (P388): 0.452 µM (active); GI50 (P388/ADR): 0.489 µM (active)
CC1=C(O)C(=O)[C@@H]2O[C@@H]2C1=O | – | – | – | 11.1 µM (inactive) | 0.542 µM (active) | 1.09 µM (active) | –
CC[C@](C)(O)C(=O)O[C@H]1C(=O)O[C@@H]2C[C@H]3C(C)=CC(=O)[C@@H](O)[C@]3(C)[C@H]3[C@@]4(O)OC[C@]32[C@@H]1[C@@H](C)[C@H]4O [GLAUCARUBINONE] | – | – | – | 0.05 µM (active) | 0.0676 µM (active) | 0.664 µM (active) | –
Cc1cc(N2CCCCC2)n2ncc(-c3ccc(Cl)cc3)c2n1 | – | – | – | – | – | – | AC50 [1]: 4.92 µM (active); CC50 [2]: > 40 µM (active)
CCOC(=O)c1c(NC(=O)CSc2nc3cc(OC)ccc3[nH]2)sc2c1CC(C)(C)NC2(C)C | – | – | – | – | – | – | CC50 [2]: 21.6 µM (active)
NC(=O)c1csc(C2OC(CO)C(O)C2O)n1 (configuration not stated) | – | – | – | 77.8 µM (inactive) | 1.86 µM (inactive) | 1.79 µM (inactive) | –
Cc1c(-c2ccc(-c3ccccc3F)cc2)nc2ccc(F)cc2c1C(=O)O [BREQUINAR SODIUM] | – | – | – | 0.0902 µM (active) | 0.359 µM (active) | 0.197 µM (active) | –
COc1ccc2o/c(=N/c3cc(F)ccc3F)c(C(N)=O)cc2c1 | > 120 µM (not active) | > 120 µM (not active) | > 120 µM (not active) | – | – | – | –
CC(=O)Nc1ccc(S(=O)(=O)N2CCN=C2SCc2ccc(C)cc2)cc1 | 45 µM (active) | 48.2 µM (active) | 8.96 µM (active) | – | – | – | EC50 (Streptokinase A): > 150 µM (not active); EC50 [5]: > 150 µM (not active); EC50 (Streptococcus): > 150 µM (not active)
Cc1ccc(Nc2nc(/N=C/N(C)C)n[nH]2)cc1C | > 120 µM (not active) | > 120 µM (not active) | 28.2 µM (active) | – | – | – | –
Cc1cccn2c(O)c(C(=O)NC3CCCCC3)c(=O)nc12 | > 120 µM (not active) | > 120 µM (not active) | > 120 µM (not active) | – | – | – | –
O=[N+]([O-])c1ccc2c(c1)nc1n2CCN(C2CCCCC2)C1 | 17.6 µM (active) | 80.8 µM (active) | – | – | – | – | –
CCC(=O)Nc1ccc2c(c1)C(=O)N(C)C[C@H](OC)[C@H](C)CN(Cc1cccc(F)c1)[C@@H](C)CO2 | – | – | – | – | – | – | AC50 [6]: 11.3 µM (active)
N#CC(OC1OC(COC2OC(CO)C(O)C(O)C2O)C(O)C(O)C1O)c1ccccc1 (configuration not stated) | – | – | – | > 225 µM (inactive) | > 225 µM (inactive) | > 225 µM (inactive) | –
Cc1cc(C)n(CC(O)COc2ccc3ccccc3c2)n1 (configuration not stated) | 16.4 µM (active) | 16.5 µM (active) | 31.3 µM (active) | – | – | – | –
O=C(COc1ccc(Br)cc1Cl)NC1CCCCC1 | 0.174 µM (active) | 0.128 µM (inconclusive) | – | – | – | – | –
Cc1c2cnccc2c(C)c2c1c1ccccc1n2CCCN | – | – | – | 0.222 µM (active) | 0.0931 µM (active) | 0.157 µM (active) | –
C/C=C/c1ccc([C@@H]2[C@H](CO)N(CC3CCCC3)C23CN(C(=O)CC2CC2)C3)cc1 | – | – | – | – | – | – | AC50 [6]: 5.78 µM (active)
Cn1c(NC(=O)/C=C/c2ccccc2)cc(=O)n(C)c1=O | 14.9 µM (active) | 26.1 µM (active) | 68.7 µM (inconclusive) | – | – | – | –
O=C(c1cccc(F)c1)N1CC[C@H]2[C@H](CO)Nc3ccc(C#Cc4cccc(F)c4)cc3[C@H]21 | – | – | – | – | – | – | AC50 [6]: 4.2 µM (active)
O=P1(Oc2ccc(Cl)cc2Cl)Oc2cc3ccccc3cc2O1 | – | – | – | 59.4 µM (inactive) | 14 µM (inactive) | 22.4 µM (inactive) | –
C#CCn1/c(=N/C(=O)c2cc(Cl)sc2Cl)sc2cc(S(N)(=O)=O)ccc21 | – | – | – | – | – | – | EC50 (Streptokinase A): > 150 µM (not active); EC50 [5]: 14 µM (active); EC50 (Streptococcus): > 150 µM (not active); CC50 [2]: > 40 µM (active)
C=C1CC(OC)(C(O)C(=O)N[C@H]2OCO[C@H]3C2O[C@H](C[C@H](O)COC)C(C)(C)C3OC)O[C@H](C)[C@@H]1C (some centres not stated) | – | – | – | < 0.00773 µM (active) | < 0.00773 µM (active) | < 0.00773 µM (active) | –
CCOC(=O)c1ccc(-c2ccc(/C=N/NC(=O)CN(c3ccccc3Cl)S(C)(=O)=O)o2)cc1 | 14.3 µM (active) | 28.6 µM (active) | 33.3 µM (active) | – | – | – | EC50 [7]: 29.4 µM (active); EC50 [8]: 37.6 µM (active)

— ChEMBL document CHEMBL1201862, “PubChem BioAssay data set” (2004)
